We go through two molecules from patent US20220251105A1, “METHODS OF TREATING A MK2-MEDIATED DISORDER” (Celgene CAR LLC, priority 2019, published 2022).

The test system of data set [1] is Ankylosing spondylitis in HLA B27 Tg rat. Briefly: HLA-B27/Huβ2m transgenic rat model of ankylosing spondylitis.
Excerpt: Etanercept and tofactinib (Balagué et al. Profiling of dihydroorotate dehydrogenase, p38 and JAK inhibitors in the rat adjuvant-induced arthritis model: a translational study. Br J Pharmacol. 2012 June; 166(4):1320-32) were included in this rat study as comparator molecules.
Data set [2] is described as follows: plasma exposure in HLA-B27/Huβ2m rats. The note with it: 10 mg/kg daily oral (comparator).
Excerpt: In each disease model, steady-state pharmacokinetics were characterized.

In the case of `C[C@@H]1CCN(C(=O)CC#N)C[C@@H]1N(C)c1ncnc2[nH]ccc12` [Tofacitinib, tofacitinib, reference compound], the “Paw Swelling Inhibition (%)” value in data set [1] (10 mg/kg daily oral gavage (comparator)) is 47%. This molecule yielded an AUCLST in data set [2] of 6540 ng·h/mL.
Take Etanercept: the “Paw Swelling Inhibition (%)” value in data set [1] (10 mg/kg twice weekly subcutaneous injection (comparator)) is 42%.
